Patent publication US10189839B2, “Tricyclic imidazole compounds as inhibitors of tryptophan hydroxylase” (ACTELION PHARMACEUTICALS LTD, priority 2013, dated 2019)

What follows are compounds tested against T1, full length human TPH1 (Homo sapiens, UniProt P17752) (assay: Biochemical in vitro assay using fluorescence readout (TPH1 enzyme activity)). Details: Table 1, mean where determined several times.
T1 construct: To generate the enzyme, full length human TPH1 is cloned into the plasmid pET20b(+); made in house; host or cells: E. coli
T1 sequence (P17752 1-444): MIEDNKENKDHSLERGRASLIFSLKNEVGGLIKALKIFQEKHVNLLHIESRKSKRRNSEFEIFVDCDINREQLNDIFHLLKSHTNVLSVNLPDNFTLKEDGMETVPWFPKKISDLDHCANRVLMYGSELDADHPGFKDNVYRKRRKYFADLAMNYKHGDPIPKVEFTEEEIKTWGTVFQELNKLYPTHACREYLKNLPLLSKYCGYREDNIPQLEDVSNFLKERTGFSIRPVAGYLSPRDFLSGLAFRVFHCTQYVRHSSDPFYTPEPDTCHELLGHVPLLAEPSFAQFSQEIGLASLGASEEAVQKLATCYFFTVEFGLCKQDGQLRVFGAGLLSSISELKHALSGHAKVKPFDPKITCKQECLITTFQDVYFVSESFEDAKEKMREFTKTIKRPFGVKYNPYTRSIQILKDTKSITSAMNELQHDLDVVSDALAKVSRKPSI
Summary of the method: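 IC50 (mean of repeats) derived from 5-hydroxy-L-tryptophan fluorescence at 540 nm (300 nm excitation) relative to vehicle, after perchloric acid stop. Reaction: 60 min, 15° C., pH 7.6 Tris-HCl, 40 μM L-tryptophan, 100 μM 6-methyltetrahydropterine, DTT, catalase, with 40-80 nM purified full-length human TPH1 from E. coli.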
`COCCOc1ccc(C2c3c(nc4n3CCCC4)CCN2C(=O)COc2ccc(NS(C)(=O)=O)nc2Cl)c(F)c1` (stereo not shown) [Example 1.27.2, N-(6-chloro-5-(2-(1-(2-fluoro-4-(2-methoxyethoxy)phenyl)-3,4,6,7,8,9-hexahydroimidazo[1,2-a:5,4-c′]dipyridin-2(1H)-yl)-2-oxoethoxy)pyridin-2-yl)methanesulfonamide] gave an IC50 of 34 nM. `CCc1cc(F)ccc1OCC(=O)N1CCc2nc3n(c2C1c1ncc(C2CC2)cc1F)CCNC3` (stereo not shown) [Example 5.4.4, 1-(1-(5-cyclopropyl-3-fluoropyridin-2-yl)-3,4,6,7,8,9-hexahydropyrido[4′,3′:4,5]imidazo[1,2-a]pyrazin-2(1H)-yl)-2-(2-ethyl-4-fluorophenoxy)ethanone] gave an IC50 of 329 nM. `Cc1nc(C)c(C2c3c(nc4n3CCCC4)CCN2C(=O)COc2ccc(N(C)S(C)(=O)=O)nc2Cl)s1` (stereo not shown) [Example 1.10.12, N-(6-chloro-5-(2-(1-(2,4-dimethylthiazol-5-yl)-3,4,6,7,8,9-hexahydroimidazo[1,2-a:5,4-c′]dipyridin-2(1H)-yl)-2-oxoethoxy)pyridin-2-yl)-N-methylmethanesulfonamide] gave an IC50 of 20 nM. In the case of `CC(=O)N1CCn2c(nc3c2C(c2sccc2F)N(C(=O)COc2ccc(N4CCOCC4)nc2Cl)CC3)C1` (stereo not shown) [Example 5.13.1, 1-(7-acetyl-1-(3-fluorothiophen-2-yl)-3,4,6,7,8,9-hexahydropyrido[4′,3′:4,5]imidazo[1,2-a]pyrazin-2(1H)-yl)-2-((2-chloro-6-morpholinopyridin-3-yl)oxy)ethanone], the IC50 is reported as 6 nM. Compound `CS(=O)(=O)Nc1ccc(OCC(=O)N2CCc3nc4n(c3C2c2ccc(C3CC3)cc2F)CCS4)c(Cl)n1` (stereo not shown) [Example 4.3.2, N-(6-chloro-5-(2-(5-(4-cyclopropyl-2-fluorophenyl)-2,3,7,8-tetrahydrothiazolo[2′,3′:2,3]imidazo[4,5-c]pyridin-6(5H)-yl)-2-oxoethoxy)pyridin-2-yl)methanesulfonamide] has an IC50 of 10 nM. `O=C(COc1ccc(N2CCCS2(=O)=O)nc1Cl)N1CCc2nc3n(c2[C@@H]1c1ccc(Cl)cc1F)CCS3` [Example 4.1.16, (S)-1-(5-(4-chloro-2-fluorophenyl)-2,3,7,8-tetrahydrothiazolo[2′,3′:2,3]imidazo[4,5-c]pyridin-6(5H)-yl)-2-((2-chloro-6-(1,1-dioxidoisothiazolidin-2-yl)pyridin-3-yl)oxy)ethanone] showed an IC50 of 6 nM. `O=C(COc1ccc(N2CCOCC2)nc1Cl)N1CCc2nc3n(c2C1c1ccc(C2CC2)cc1F)CCOC3` (stereo not shown) [Example 6.2.1, 2-((2-chloro-6-morpholinopyridin-3-yl)oxy)-1-(6-(4-cyclopropyl-2-fluorophenyl)-3,4,8,9-tetrahydro-1H-pyrido[4′,3′:4,5]imidazo[2,1-c][1,4]oxazin-7(6H)-yl)ethanone] gave an IC50 of 4 nM. For `CCc1nc(NS(C)(=O)=O)ncc1OCC(=O)N1CCc2nc3n(c2C1c1ccc(C2CC2)cc1F)CCCC3` (stereo not shown) [Example 1.8.7, N-(5-(2-(1-(4-cyclopropyl-2-fluorophenyl)-3,4,6,7,8,9-hexahydroimidazo[1,2-a:5,4-c′]dipyridin-2(1H)-yl)-2-oxoethoxy)-4-ethylpyrimidin-2-yl)methanesulfonamide], the IC50 was 54 nM. `CCc1nc(C(=O)NC2CC2)ccc1OCC(=O)N1CCc2nc3n(c2[C@@H]1c1ncc(C2CC2)cc1F)CCS3` [Example 4.2.3, (R)-N-cyclopropyl-5-(2-(5-(5-cyclopropyl-3-fluoropyridin-2-yl)-2,3,7,8-tetrahydrothiazolo[2′,3′:2,3]imidazo[4,5-c]pyridin-6(5H)-yl)-2-oxoethoxy)-6-ethylpicolinamide] showed an IC50 of 16 nM. `O=C(COc1ccc(N2CCOCC2)nc1Cl)N1CCc2nc3n(c2C1c1sccc1F)CCOC3` (stereo not shown) [Example 6.6.1, 2-((2-chloro-6-morpholinopyridin-3-yl)oxy)-1-(6-(3-fluorothiophen-2-yl)-3,4,8,9-tetrahydro-1H-pyrido[4′,3′:4,5]imidazo[2,1-c][1,4]oxazin-7(6H)-yl)ethanone] showed an IC50 of 8 nM.
